Results: US20050154060A1, “Anti-inflamatory inhalation pharmaceutical composition” (Galephar Pharmaceutical Research, Inc., priority 2003, published 2005)

Assays:
[1] = system: interleukine 6 (IL-6); test: Sputum IL-6 in 12-week placebo controlled study of NAL DPI in COPD patients; type: in vivo, human (COPD patients); details: for concentration in IL-6 decreased by: sputum, after 12 weeks of treatment
Description: (§1) A new clinical trial has been performed with a dry powder inhaler (DPI) formulation of NAL in moderate to severely ill COPD patients. The study was performed with two doses of NAL DPI: 20 mg twice a day and 40 mg twice a day versus placebo.
(§2) The complete title of the study was “A 12-week, multicentre, randomised, double-blind, placebo controlled, pilot study of the safety and efficacy of Nacystelyn (20 mg b.i.d. and 40 mg b.i.d.) in patients with chronic obstructive pulmonary disease (COPD).”
(§3) NAL pulmonary administration was performed using a Dry Powder Inhaler consisting of a capsule containing NAL and a carrier, and of an inhalation device.
(§4) During the same study, sputum of COPD patients was collected at baseline (T0), after 4 weeks (w4) and after 12 weeks of treatment (T12).
(§5) The purpose of collecting sputum was to assess if NAL DPI administration could affect (increase or decrease) lung inflammation parameters in such patients. Lung inflammation may be reflected by the sputum concentration of some pro-inflammatory markers, called cytokines, such as interleukine 6 (IL-6) and interleukine 8 (IL-8) or anti-inflammatory markers, such as interleukine 10 (IL-10).
(§6) After collection of the mucus, the said mucus was centrifugated and the cytokines IL-8 and IL-6 were quantified using a validated analytical method. It should be noted that only subjects presenting a quantifiable value of cytokines at the time considered were taken into account.

[2] = system: interleukine 8 (IL-8); test: Sputum IL-8 in 12-week placebo controlled study of NAL DPI in COPD patients; type: in vivo, human (COPD patients)
Description: as §1, §2, §3, §4, §5, §6

[3] = sputum of COPD patients, NAL DPI 20 mg twice a day, week 4
[4] = sputum of COPD patients, NAL DPI 20 mg twice a day, week 12
[5] = sputum of COPD patients, NAL DPI 40 mg twice a day, week 4
[6] = sputum of COPD patients, NAL DPI 40 mg twice a day, week 12

## CC(=O)N[C@@H](CS)C(=O)O.NCCCC[C@H](N)C(=O)O [NAL, L-Lysine-N-Acetylcysteinate]
[1]; sputum of COPD patients, 20 mg and 40 mg twice a day
  effect on IL-6 in sputum (in words): decrease of IL-6 in the sputum of COPD patients in a dose related manner
[1]; [3]
  change in inflammatory marker IL-6, percent change versus baseline: 24%
[1]; [4]
  change in inflammatory marker IL-6, percent change versus baseline: −17%
[1]; [5]
  change in inflammatory marker IL-6, percent change versus baseline: 70%
[1]; [6]
  change in inflammatory marker IL-6, percent change versus baseline: −42%
[1]; NAL 20 mg
  concentration in IL-6 decreased by: 17%
[1]; NAL 40 mg
  concentration in IL-6 decreased by: 42%
[2]; sputum of COPD patients
  effect on IL-8 levels in sputum (in words): significantly decrease the IL-8 levels in the sputum
[2]; [3]
  change in inflammatory marker IL-8, percent change versus baseline: −13%
[2]; [4]
  change in inflammatory marker IL-8, percent change versus baseline: −17%
[2]; [5]
  change in inflammatory marker IL-8, percent change versus baseline: −2%
[2]; [6]
  change in inflammatory marker IL-8, percent change versus baseline: +3%
[2]; sputum, after 12 weeks of treatment, NAL 20 mg
  levels of IL-8 decreased by: 17%
[2]; sputum, after 12 weeks of treatment, NAL 40 mg
  levels of IL-8 increased by: 3%
